Active and inactive are the calls of the source. The rule behind the calls is not given here.
How the values were obtained:
HeLa [1] = test: Cytotoxicity against human HeLa cells assessed as reduction in cell viability incubated for 72 hrs by SRB assay; format: functional, cell-based
HCT-116 = test: Cytotoxicity against human HCT116 cells assessed as reduction in cell viability incubated for 72 hrs by SRB assay; format: functional, cell-based; details: HCT-116, 72 h
[2] = Cytotoxicity against human SGC7901 cells assessed as reduction in cell viability incubated for 72 hrs by SRB assay; format: functional, cell-based; details: SGC-7901, 72 h
HeLa [3] = test: Induction of apoptosis in human HeLa cells assessed as necrotic cells levels at 3 uM incubated for 72 hrs by annexin V-FITC and propidium iodide staining based flow cytometry (reference value: 0.2%); format: functional
HeLa [4] = test: Induction of apoptosis in human HeLa cells assessed as late apoptotic cells levels at 3 uM incubated for 72 hrs by annexin V-FITC and propidium iodide staining based flow cytometry (reference value: 2.8%); format: functional
HeLa [5] = test: Induction of apoptosis in human HeLa cells assessed as early apoptotic cells levels at 3 uM incubated for 72 hrs by annexin V-FITC and propidium iodide staining based flow cytometry (reference value: 1.4%); format: functional
HeLa [6] = test: Induction of cell cycle arrest in human HeLa cells assessed as accumulation at S pahse at 5 uM incubated for 24 hrs by propidium iodide staining based flow cytometry (reference value: 40.5%); format: functional
HeLa [7] = test: Induction of cell cycle arrest in human HeLa cells assessed as accumulation at S pahse at 20 uM incubated for 24 hrs by propidium iodide staining based flow cytometry (reference value: 40.5%); format: functional
HeLa [8] = test: Induction of cell cycle arrest in human HeLa cells assessed as accumulation at S pahse at 10 uM incubated for 24 hrs by propidium iodide staining based flow cytometry (reference value: 40.5%); format: functional
[9] = Thiol reactivity in DMSO-d6 solution assessed as formation of 1,6-O,O-diacetyl-13-(2-hydroxyethylthiol) britannilactone at 0.05 mmol in presence of beta-mercaptoethanol by 1H NMR Michael acceptor assay
HeLa [10] = test: Induction of cell cycle arrest in human HeLa cells assessed as accumulation at G2/M pahse at 20 uM incubated for 24 hrs by propidium iodide staining based flow cytometry (reference value: 28.4%); format: functional
HeLa [11] = test: Induction of apoptosis in human HeLa cells assessed as early apoptotic cells levels at 6 uM incubated for 72 hrs by annexin V-FITC and propidium iodide staining based flow cytometry (reference value: 1.4%); format: functional
HeLa [12] = test: Induction of cell cycle arrest in human HeLa cells assessed as accumulation at G0/G1 phase at 10 uM incubated for 24 hrs by propidium iodide staining based flow cytometry (reference value: 31.1%); format: functional
HeLa [13] = test: Induction of cell cycle arrest in human HeLa cells assessed as accumulation at G2/M pahse at 5 uM incubated for 24 hrs by propidium iodide staining based flow cytometry (reference value: 28.4%); format: functional
HeLa [14] = test: Induction of apoptosis in human HeLa cells assessed as increase in cleaved caspase-3 levels at 3 to 12 uM incubated for 48 hrs by Western blotting method; format: functional, cell-based
HeLa [15] = test: Induction of cell cycle arrest in human HeLa cells assessed as accumulation at G2/M pahse at 10 uM incubated for 24 hrs by propidium iodide staining based flow cytometry (reference value: 28.4%); format: functional
HeLa [16] = test: Cytotoxicity against human HeLa cells assessed as reduction in cell viability at 1.57 to 12.5 uM incubated for 72 hrs by SRB assay; format: functional, cell-based
[17] = Thiol reactivity in DMSO-d6 solution at 0.05 mmol in presence of beta-mercaptoethanol by 1H NMR Michael acceptor assay
[18] = Thiol reactivity in DMSO-d6 solution assessed as formation of 1-O-acetyl-6-O-benzoyl-13-(2-hydroxyethylthiol) britannilactone at 0.05 mmol in presence of beta-mercaptoethanol by 1H NMR Michael acceptor assay
HeLa [19] = test: Induction of cell cycle arrest in human HeLa cells assessed as accumulation at G0/G1 phase at 5 uM incubated for 24 hrs by propidium iodide staining based flow cytometry (reference value: 31.1%); format: functional
HeLa [20] = test: Induction of apoptosis in human HeLa cells assessed as late apoptotic cells levels at 6 uM incubated for 72 hrs by annexin V-FITC and propidium iodide staining based flow cytometry (reference value: 2.8%); format: functional
HeLa [21] = test: Cytotoxicity against human HeLa cells assessed as reduction in cell viability at 1.57 to 12.5 uM in presence of 1 mM NAC incubated for 72 hrs by SRB assay; format: functional, cell-based
HeLa [22] = test: Induction of cell cycle arrest in human HeLa cells assessed as accumulation at G0/G1 phase at 20 uM incubated for 24 hrs by propidium iodide staining based flow cytometry (reference value: 31.1%); format: functional
HeLa [23] = test: Induction of apoptosis in human HeLa cells assessed as necrotic cells levels at 6 uM incubated for 72 hrs by annexin V-FITC and propidium iodide staining based flow cytometry (reference value: 0.2%); format: functional
HeLa [24] = test: Induction of apoptosis in human HeLa cells assessed as increase in cleaved caspase-3 levels at 3 uM incubated for 48 hrs by Western blotting method; format: functional, cell-based
HeLa [25] = test: Induction of apoptosis in human HeLa cells assessed as necrotic cells levels at 10 uM incubated for 72 hrs by annexin V-FITC and propidium iodide staining based flow cytometry (reference value: 0.2%); format: functional
HeLa [26] = test: Induction of apoptosis in human HeLa cells assessed as late apoptotic cells levels at 10 uM incubated for 72 hrs by annexin V-FITC and propidium iodide staining based flow cytometry (reference value: 2.8%); format: functional
HeLa [27] = test: Induction of apoptosis in human HeLa cells assessed as early apoptotic cells levels at 10 uM incubated for 72 hrs by annexin V-FITC and propidium iodide staining based flow cytometry (reference value: 1.4%); format: functional

With C=C1C(=O)O[C@@H]2CC(C)=C([C@@H](C)CCCOC(C)=O)[C@@H](OC(=O)COc3cccc4[nH]nnc34)[C@H]12 the IC50 (HeLa [1]) was 23 µM, the IC50 (HCT-116) was 23.7 µM and the IC50 [2] was 21.1 µM.
C=C1C(=O)O[C@@H]2CC(C)=C([C@@H](C)CCCOC(C)=O)[C@@H](OC(=O)COc3cccc4cccnc34)[C@H]12 showed an IC50 (HeLa [1]) of 8.94 µM, an IC50 (HCT-116) of 12.1 µM and an IC50 [2] of 14.3 µM.
In the case of CC(=O)OCCC[C@H](C)C1=C(C)C[C@H]2OC(=O)C(CSCCO)[C@H]2[C@@H]1OC(=O)c1ccccc1 (stereo not given in full), the IC50 (HeLa [1]) is reported as over 100 µM, the IC50 (HCT-116) is reported as over 100 µM and the IC50 [2] is reported as over 100 µM.
With C=C1C(=O)O[C@@H]2CC(C)=C([C@@H](C)CCCOC(C)=O)[C@@H](OC(=O)CCl)[C@H]12 the IC50 (HeLa [1]) was 28.5 µM, the IC50 (HCT-116) was 18.8 µM and the IC50 [2] was 26.5 µM.
For C=C1C(=O)O[C@@H]2CC(C)=C([C@@H](C)CCCOC(C)=O)[C@@H](OC(=O)COc3cccc(C(C)=O)c3)[C@H]12, the IC50 (HeLa [1]) was 38.6 µM, the IC50 (HCT-116) was 45.5 µM and the IC50 [2] was 46.1 µM.
Work on C=C1C(=O)O[C@@H]2CC(C)=C([C@@H](C)CCCOC(C)=O)[C@@H](OC(=O)c3ccccc3)[C@H]12 yielded an IC50 (HeLa [1]) of 5.19 µM, an Activity (HeLa [3]) of 0.3% and an Activity (HeLa [4]) of 6.9%. It also gave an Activity (HeLa [5]) of 3.9%, an Activity (HeLa [6]) of 41.3% and an Activity (HeLa [7]) of 15.6%. The Activity (HeLa [8]) was 18.1%, the Activity [9] was “Active” and the Activity (HeLa [10]) was 63.7%. The Activity (HeLa [11]) was 4.5%, the Activity (HeLa [12]) was 28.7% and the Activity (HeLa [13]) was 29.2%. The Activity (HeLa [14]) was “Dose-dependent effect”, the Activity (HeLa [15]) was 53.2% and the Activity (HeLa [16]) was “Dose-dependent effect”. The Activity [17] was “Active”, the Activity [18] was “Active” and the IC50 (HCT-116) was 10.5 µM. For the same compound, the Activity (HeLa [19]) was 29.5%, the IC50 [2] was 9.93 µM and the Activity (HeLa [20]) was 30%. The Activity (HeLa [21]) was “inactive”, the Activity (HeLa [22]) was 20.7% and the Activity (HeLa [23]) was 3.5%.
Work on C=C1C(=O)O[C@@H]2CC(C)=C([C@@H](C)CCCOC(C)=O)[C@@H](OC(=O)CN3CCOCC3)[C@H]12 yielded an IC50 (HeLa [1]) of 13.9 µM, an IC50 (HCT-116) of 16.3 µM and an IC50 [2] of 14.1 µM.
CC(=O)OCCC[C@H](C)C1=C(C)C[C@H]2OC(=O)C(CSCCO)[C@H]2[C@@H]1OC(C)=O (stereo not given in full) gave an IC50 (HeLa [1]) of over 100 µM, an IC50 (HCT-116) of over 100 µM and an IC50 [2] of over 100 µM.
With COc1cc([C@@H]2c3cc4c(cc3[C@@H](O[C@@H]3O[C@@H]5CO[C@@H](C)O[C@H]5[C@H](O)[C@H]3O)[C@H]3COC(=O)[C@H]23)OCO4)cc(OC)c1O [ETOPOSIDE] the IC50 (HeLa [1]) was 2.97 µM, the Activity (HeLa [24]) was “Active” and the IC50 (HCT-116) was 2.13 µM. It also gave an IC50 [2] of 6.56 µM.
With C=C1C(=O)O[C@@H]2CC(C)=C([C@@H](C)CCCOC(C)=O)[C@@H](OC(C)=O)[C@H]12 the IC50 (HeLa [1]) was 11.2 µM, the Activity (HeLa [25]) was 11% and the Activity [9] was “Active”. The Activity [17] was “Active”, the Activity [18] was “Active” and the IC50 (HCT-116) was 10.1 µM. It also gave an IC50 [2] of 15.9 µM, an Activity (HeLa [26]) of 24.4% and an Activity (HeLa [27]) of 6.9%.
For C=C1C(=O)O[C@@H]2CC(C)=C([C@@H](C)CCCOC(C)=O)[C@@H](OC(=O)COc3ccc([N+](=O)[O-])cc3[N+](=O)[O-])[C@H]12, the IC50 (HeLa [1]) was over 100 µM, the IC50 (HCT-116) was over 100 µM and the IC50 [2] was over 100 µM.
Compound C=C1C(=O)O[C@@H]2CC(C)=C([C@@H](C)CCCOC(C)=O)[C@@H](OC(=O)c3cc(OC)c(OC)c(OC)c3)[C@H]12 has an IC50 (HeLa [1]) of 6.54 µM.
In the case of C=C1C(=O)O[C@@H]2CC(C)=C([C@@H](C)CCCOC(C)=O)[C@@H](OC(=O)CN(CC)CC)[C@H]12, the IC50 (HeLa [1]) is reported as 10.7 µM, the IC50 (HCT-116) is reported as 13.1 µM and the IC50 [2] is reported as 11.6 µM.

From ChEMBL document CHEMBL3596152, “Synthesis of 1-O-acetylbritannilactone analogues from Inula britannica and in vitro evaluation of their anticancer potential” (Medchemcomm, 2014)
